Source: US11053204B2, “Pyrimidinyloxy benzene derivatives as herbicides” (FMC Corporation, priority 2015, dated 2021)

What was measured:
Format in all cases: in vivo
[1] = test system: wheat (Triticum aestivum); assay: Test A postemergence, visual injury rating
In short: (§1)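 Scoring: eye-based comparison with untreated controls, 0 for no effect through 100 for complete control, at about day 10. Treatments: directed soil spray preemergence; foliar spray postemergence on 2–10 cm plants at the one- to two-leaf stage. Medium: loam soil with sand.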

[2] = test system: kochia (Kochia scoparia); assay: Test A postemergence, visual injury rating
In short: as §1

[3] = test system: giant foxtail (Setaria faberii); assay: Test A postemergence, visual injury rating
In short: as §1

[4] = test system: corn (Zea mays); assay: Test A postemergence, visual injury rating
In short: as §1

[5] = test system: galium (catchweed bedstraw, Galium aparine); assay: Test A postemergence, visual injury rating
In short: as §1

[6] = test system: ragweed (common ragweed, Ambrosia elatior); assay: Test A postemergence, visual injury rating
In short: as §1

[7] = test system: barnyardgrass (Echinochloa crus-galli); assay: Test A postemergence, visual injury rating; details: 0 is no effect, 100 is complete control; for Barnyardgrass plant response rating: 0 to 100 scale, approximately 10 days
In short: as §1

[8] = test system: Italian ryegrass (Lolium multiflorum); assay: Test A postemergence, visual injury rating
In short: as §1

[9] = test system: pigweed (Amaranthus retroflexus); assay: Test A postemergence, visual injury rating
In short: as §1

[10] = test system: blackgrass (Alopecurus myosuroides); assay: Test A postemergence, visual injury rating
In short: as §1

[11] = test system: foxtail, giant (giant foxtail, Setaria faberii); assay: Test C postemergence, plant response rating; details: for Foxtail, Giant plant response rating: scale 0 to 100 (0 no effect, 100 complete control)
In short: (§2)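 Greenhouse plants rated visually against untreated controls 13–15 d after treatment, scale 0 = no effect to 100 = complete control. Postemergence sprays went onto potted plants 2–18 cm tall (1–4 leaves); preemergence sprays onto soil freshly sown in loam–sand or silt loam, chemicals formulated in non-phytotoxic solvent with surfactant.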

[12] = test system: ryegrass, Italian (Italian ryegrass, Lolium multiflorum); assay: Test C postemergence, plant response rating; details: for Ryegrass, Italian plant response rating: scale 0 to 100 (0 no effect, 100 complete control)
In short: as §2

[13] = test system: velvetleaf (Abutilon theophrasti); assay: Test C postemergence, plant response rating; details: for Velvetleaf plant response rating: 125 g ai/ha, scale 0 to 100 (0 no effect, 100 complete control)
In short: as §2

[14] = test system: lambsquarters (Chenopodium album); assay: Test C postemergence, plant response rating; details: for Lambsquarters plant response rating: scale 0 to 100 (0 no effect, 100 complete control)
In short: as §2

[15] = test system: oat, wild (wild oat Avena fatua); assay: Test C postemergence, plant response rating; details: for Oat, Wild plant response rating: scale 0 to 100 (0 no effect, 100 complete control)
In short: as §2

[16] = test system: ragweed (common ragweed, Ambrosia elatior); assay: Test C postemergence, plant response rating; details: for Ragweed plant response rating: scale 0 to 100 (0 no effect, 100 complete control)
In short: as §2

[17] = test system: soybean (Glycine max); assay: Test C postemergence, plant response rating; details: for Soybean plant response rating: scale 0 to 100 (0 no effect, 100 complete control)
In short: as §2

[18] = test system: waterhemp (common waterhemp, Amaranthus rudis); assay: Test C postemergence, plant response rating; details: for Waterhemp plant response rating: 125 g ai/ha, scale 0 to 100 (0 no effect, 100 complete control)
In short: as §2

[19] = test system: chickweed (common chickweed, Stellaria media); assay: Test C postemergence, plant response rating; details: for Chickweed plant response rating: scale 0 to 100 (0 no effect, 100 complete control)
In short: as §2

[20] = 125 g ai/ha, 0 to 100 scale, 0 is no effect, 100 is complete control, approximately 10 days
[21] = 500 g ai/ha, 0 is no effect, 100 is complete control
[22] = 125 g ai/ha, 0 is no effect, 100 is complete control
[23] = 31 g ai/ha, 0 to 100 scale (0 no effect, 100 complete control)

CCCCC(=O)c1c(Br)cccc1Oc1ncc(Cl)cn1 [Compound 79]
Wheat plant response rating [1, 20]: 20
Wheat plant response rating (0 to 100 scale) [1, 21]: 30
Kochia plant response rating [2, 20]: 100
Kochia plant response rating (0 to 100 scale) [2, 21]: 100
Foxtail, Giant plant response rating (0 to 100 scale) [3, 22]: 80
Foxtail, Giant plant response rating (0 to 100 scale) [3, 21]: 80
Corn plant response rating (0 to 100 scale) [4, 22]: 80
Corn plant response rating (0 to 100 scale) [4, 21]: 90
Galium plant response rating (0 to 100 scale) [5, 22]: 90
Galium plant response rating (0 to 100 scale) [5, 21]: 100
Ragweed plant response rating [6, 20]: 30
Ragweed plant response rating (0 to 100 scale) [6, 21]: 40
Barnyardgrass plant response rating (0 to 100 scale) ([7]; 125 g ai/ha): 90
Barnyardgrass plant response rating (0 to 100 scale) ([7]; 500 g ai/ha): 100
Ryegrass, Italian plant response rating [8, 20]: 90
Ryegrass, Italian plant response rating (0 to 100 scale) [8, 21]: 90
Pigweed plant response rating [9, 20]: 100
Pigweed plant response rating (0 to 100 scale) [9, 21]: 100
Blackgrass plant response rating (0 to 100 scale) [10, 22]: 50
Blackgrass plant response rating (0 to 100 scale) [10, 21]: 90
Plant response rating, Foxtail, Giant ([11]; 16 g ai/ha, scale of 0 to 100): 10
Plant response rating, Foxtail, Giant ([11]; 31 g ai/ha, scale 0 to 100): 20
Foxtail, Giant plant response rating ([11]; 62 g ai/ha): 25
Foxtail, Giant plant response rating ([11]; 125 g ai/ha): 40
Plant response rating, Ryegrass, Italian ([12]; 16 g ai/ha, scale of 0 to 100): 5
Plant response rating, Ryegrass, Italian ([12]; 31 g ai/ha, scale 0 to 100): 30
Ryegrass, Italian plant response rating ([12]; 62 g ai/ha): 25
Ryegrass, Italian plant response rating ([12]; 125 g ai/ha): 30
Plant response rating, Velvetleaf ([13]; 16 g ai/ha, scale of 0 to 100): 30
Plant response rating, Velvetleaf ([13]; 31 g ai/ha, scale 0 to 100): 75
Velvetleaf plant response rating [13]: 90
Plant response rating, Lambsquarters ([14]; 16 g ai/ha, scale of 0 to 100): 75
Plant response rating, Lambsquarters ([14]; 31 g ai/ha, scale 0 to 100): 85
Lambsquarters plant response rating ([14]; 62 g ai/ha): 90
Lambsquarters plant response rating ([14]; 125 g ai/ha): 100
Plant response rating, Oat, Wild ([15]; 16 g ai/ha, scale of 0 to 100): 15
Plant response rating, Oat, Wild ([15]; 31 g ai/ha, scale 0 to 100): 60
Oat, Wild plant response rating ([15]; 62 g ai/ha): 45
Oat, Wild plant response rating ([15]; 125 g ai/ha): 35
Plant response rating, Ragweed ([16]; 16 g ai/ha, scale of 0 to 100): 30
Plant response rating, Ragweed ([16]; 31 g ai/ha, scale 0 to 100): 20
Ragweed plant response rating ([16]; 62 g ai/ha): 75
Ragweed plant response rating ([16]; 125 g ai/ha): 65
Plant response rating, Soybean ([17]; 16 g ai/ha, scale of 0 to 100): 60
Plant response rating, Soybean ([17]; 31 g ai/ha, scale 0 to 100): 70
Soybean plant response rating ([17]; 62 g ai/ha): 65
Soybean plant response rating ([17]; 125 g ai/ha): 65
Plant response rating, Waterhemp ([18]; 16 g ai/ha, scale of 0 to 100): 95
Plant response rating, Waterhemp ([18]; 31 g ai/ha, scale 0 to 100): 95
Waterhemp plant response rating [18]: 98
Plant response rating, Chickweed ([19]; 16 g ai/ha, scale of 0 to 100): 95
Plant response rating, Chickweed ([19]; 31 g ai/ha, scale 0 to 100): 90
Chickweed plant response rating ([19]; 62 g ai/ha): 95
Chickweed plant response rating ([19]; 125 g ai/ha): 98

N#CC(CCCC(F)(F)F)c1ccccc1Oc1ncc(Cl)cn1 (stereo not shown) [Compound 144]
Wheat plant response rating [1, 23]: 10
Wheat plant response rating [1, 20]: 60
Kochia plant response rating [2, 23]: 90
Kochia plant response rating [2, 20]: 100
Foxtail, Giant plant response rating [3, 23]: 60
Foxtail, Giant plant response rating [3, 20]: 90
Corn plant response rating [4, 23]: 20
Corn plant response rating [4, 20]: 80
Galium plant response rating [5, 23]: 40
Galium plant response rating [5, 20]: 100
Ragweed plant response rating [6, 23]: 10
Ragweed plant response rating [6, 20]: 10
Barnyardgrass plant response rating ([7]; 31 g ai/ha): 40
Barnyardgrass plant response rating ([7]; 125 g ai/ha): 90
Ryegrass, Italian plant response rating [8, 23]: 30
Ryegrass, Italian plant response rating [8, 20]: 80
Pigweed plant response rating [9, 23]: 90
Pigweed plant response rating [9, 20]: 100
Blackgrass plant response rating [10, 23]: 50
Blackgrass plant response rating [10, 20]: 90
Plant response rating, Foxtail, Giant ([11]; 16 g ai/ha, scale of 0 to 100): 5
Plant response rating, Foxtail, Giant ([11]; 31 g ai/ha, scale 0 to 100): 10
Foxtail, Giant plant response rating ([11]; 62 g ai/ha): 30
Foxtail, Giant plant response rating ([11]; 125 g ai/ha): 40
Plant response rating, Ryegrass, Italian ([12]; 16 g ai/ha, scale of 0 to 100): 5
Plant response rating, Ryegrass, Italian ([12]; 31 g ai/ha, scale 0 to 100): 10
Ryegrass, Italian plant response rating ([12]; 62 g ai/ha): 15
Ryegrass, Italian plant response rating ([12]; 125 g ai/ha): 20
Plant response rating, Velvetleaf ([13]; 16 g ai/ha, scale of 0 to 100): 25
Plant response rating, Velvetleaf ([13]; 31 g ai/ha, scale 0 to 100): 30
Velvetleaf plant response rating [13]: 65
Plant response rating, Lambsquarters ([14]; 16 g ai/ha, scale of 0 to 100): 40
Plant response rating, Lambsquarters ([14]; 31 g ai/ha, scale 0 to 100): 75
Lambsquarters plant response rating ([14]; 62 g ai/ha): 70
Lambsquarters plant response rating ([14]; 125 g ai/ha): 85
Plant response rating, Oat, Wild ([15]; 16 g ai/ha, scale of 0 to 100): 20
Plant response rating, Oat, Wild ([15]; 31 g ai/ha, scale 0 to 100): 30
Oat, Wild plant response rating ([15]; 62 g ai/ha): 30
Oat, Wild plant response rating ([15]; 125 g ai/ha): 35
Plant response rating, Ragweed ([16]; 16 g ai/ha, scale of 0 to 100): 10
Plant response rating, Ragweed ([16]; 31 g ai/ha, scale 0 to 100): 15
Ragweed plant response rating ([16]; 62 g ai/ha): 25
Ragweed plant response rating ([16]; 125 g ai/ha): 15
Plant response rating, Soybean ([17]; 16 g ai/ha, scale of 0 to 100): 30
Plant response rating, Soybean ([17]; 31 g ai/ha, scale 0 to 100): 30
Soybean plant response rating ([17]; 62 g ai/ha): 50
Soybean plant response rating ([17]; 125 g ai/ha): 65
Plant response rating, Waterhemp ([18]; 16 g ai/ha, scale of 0 to 100): 35
Plant response rating, Waterhemp ([18]; 31 g ai/ha, scale 0 to 100): 60
Waterhemp plant response rating [18]: 75
Plant response rating, Waterhemp ([18]; rate not given, scale 0 to 100): 75
Plant response rating, Chickweed ([19]; 16 g ai/ha, scale of 0 to 100): 50
Plant response rating, Chickweed ([19]; 31 g ai/ha, scale 0 to 100): 55
Chickweed plant response rating ([19]; 62 g ai/ha): 85
Chickweed plant response rating ([19]; 125 g ai/ha): 85
